One assay has as its target T1, CB2 receptors (Mus musculus, UniProt P47936).
T1 construct: the complete brain (excluding the cerebellum) and the spleen were quickly dissected and kept in ice; from tissue; host or cells: mouse spleen, membrane preparation
In words: biochemical. It counts as binding. As for the experimental part: (§1) The affinity of the synthesized compounds towards the CB1 and CB2 cannabinoidergic receptors was evaluated in vitro by radioreceptor binding studies using the method reported hereinunder.
(§2) The technique of the receptor binding allows to establish if, and with which affinity and specificity, a specific compound binds to a particular receptor. To evaluate the affinity of a specific compound to a particular receptor it is necessary to challenge in a particular tissue preparation wherein those specific receptors are present the compound to be tested with a radioactive labelled compound whose affinity for the same receptors is known. […] The amount of radioactivity present in the receptor-compound complex allows furthermore to estimate with great accuracy the amount of compound bound to the receptor. By said method it is therefore possible to establish quickly the affinity of a new compound towards a specific receptor and thus to determine its pharmacological activity. With the same experimental protocol it is possible to evaluate the affinity of the compound towards other receptors and thus establish its specificity degree toward said other receptors.
(§3) The food and water were ad libitum.
(§4) The procedure adopted, based on the use of the compound [^3H]-CP-55,940 (New England Nuclear, Boston, Mass., USA), requires the use of the mouse brain as biological tissue for the evaluation of the affinity towards the CB1 receptors and of the mouse spleen for the affinity assay for the CB2 receptors.
(§5) The animals were sacrificed by cervical dislocation and the complete brain (excluding the cerebellum) and the spleen were quickly dissected and kept in ice.
(§6) The tissue was homogenized in 15 volumes (weight/volume) of TME buffer (50 Mm Tris, 1 mM EDTA and 3 mM MgCl2, pH 7.4) by an Ultra-Turrax and subsequently centrifuged for 10 minutes at 1086×g in a centrifuge refrigerated at 4° C. The recovered supernatant was centrifuged at 45,000×g for 30 minutes at 4° C. by using a Beckman SW41 rotor and the obtained pellet was resuspended in 50 volumes of TME.
(§7) The thus obtained membranes (50-80 μg of proteins) were incubated in the presence of 1 nM of [^3H]-CP55.940 for 1 hour at 30° C. in a final volume of 0.5 ml of TME buffer containing 5 mg/ml of bovine serum albumin (BSA). The non specific binding was measured in the presence of CP55.940 at a 1 μM concentration.
(§8) All the experiments were carried out in polypropylene test tubes pretreated with Sigma-Cote (Sigma Chemical Co. Ltd., Poole, UK) for reducing non specific binding.
(§9) In order to determine the competitive inhibition binding curves, eight different concentrations of each compound were used.
(§10) Incubation was stopped by addition of TME buffer (at 4° C.) containing 5 mg/ml of BSA, and subsequent filtration under vacuum by Whatman GFC filters pretreated with 0.5% of polyethylamine (PEI) and by using a filtering device (Brandell, Gaithersburg, Md., USA). The filters were washed 3 times with […] of Tris HCl buffer (pH 7.4, 4° C.) containing 1 mg/ml of BSA and separately placed in plastic vials containing 4 ml of scintillating liquid (Ultima Gold MV, Packard).
(§11) The radioactivity present in the filters was determined by a scintillator spectrophotometer (Tricarb® 2100, Packard, Meridien, USA).
(§12) Protein determination was carried out by the Bradford method by using the protocol and the reactants supplied by Bio-Rad (Milano, Italy).

The next assay addresses T2, CB1 receptors (Mus musculus, UniProt P47746).
T2 construct: the complete brain (excluding the cerebellum) and the spleen were quickly dissected and kept in ice; from tissue; host or cells: mouse brain (excluding cerebellum), membrane preparation
In words: biochemical. It counts as binding. As for the experimental part: as §1, §2, §3, §4, §5, §6, §7, §8, §9, §10, §11, §12

In the next assay the test system is mice. In words: Hypothermia test in vivo (rectal temperature after i.p. administration). The settings on record: for Body Temperature: 40 mg/kg i.p. The text has this: It is known that the compounds having a cannabomimetic activity show in vivo the following effects: hypoactivity, hypothermia, analgesia and catalepsy (B. R. Martin et al., Pharmacol. Biochem. Behav.; 1991, 40, 471-478; P. B. Smith et al.; J. Pharmacol. Exp. Ther.; 1994, 270, 219-227). In order to display thermoregulating activity, the compounds acting towards the cannabinoidergic receptors must be able to pass the haematoencephalic barrier since the central site of said temperature regulating receptors is positioned in the preoptical front core of the hypothalamus (S. M. Rawls et al.; J. Pharmacol. Exp. Ther.; 2002, 303, 395-402). After treatment with CB1 agonist compounds passing the haemato-encephalic barrier, the cannabimimetic activity is evidenced by a reduction of the body temperature. CB1 antagonist compounds that pass the haemato-encephalic barrier, have no influence on the body temperature and show an antagonist activity towards the reference CB1 agonists as WIN 55.212-2, thus hindering the hypothermia induced by the latter.
The tests have been carried out in the experimental animal (mice) according to the indications of M. Rinaldi-Carmona et al. in FEBS Letters; 1994, 350, 240-244. Rectal temperature in mice was determined by an electronic thermometer inserted at a 2 mm depth. The measurements were carried out on mice acclimatized for one hour. […]
The experiment was carried out with the compound of example 3.1. Said compound was dispersed in a carrier formed of a physiological solution added with Tween 80 (3 drops). The so prepared samples were used for treating the animals at a dose of the compound of 40 mg/kg of body weight. The blank was the carrier.
Each test was repeated on ten animals: the results obtained are therefore the average of the determinations made on ten animals.

[1] abbreviates: mouse spleen membranes, 1 nM [3H]-CP55.940, read-out: CB2 (spleen) Ki.
Where [2] appears, read: mouse brain membranes, 1 nM [3H]-CP55.940, read-out: CB1 (brain) Ki.

Molecules are shown by their SMILES. Where two headings read alike, the source gives them in different places.

From patent US20100215759A1 (priority 2009, published 2010) come the findings set out here.

T2 sequence (P47746 whole entry): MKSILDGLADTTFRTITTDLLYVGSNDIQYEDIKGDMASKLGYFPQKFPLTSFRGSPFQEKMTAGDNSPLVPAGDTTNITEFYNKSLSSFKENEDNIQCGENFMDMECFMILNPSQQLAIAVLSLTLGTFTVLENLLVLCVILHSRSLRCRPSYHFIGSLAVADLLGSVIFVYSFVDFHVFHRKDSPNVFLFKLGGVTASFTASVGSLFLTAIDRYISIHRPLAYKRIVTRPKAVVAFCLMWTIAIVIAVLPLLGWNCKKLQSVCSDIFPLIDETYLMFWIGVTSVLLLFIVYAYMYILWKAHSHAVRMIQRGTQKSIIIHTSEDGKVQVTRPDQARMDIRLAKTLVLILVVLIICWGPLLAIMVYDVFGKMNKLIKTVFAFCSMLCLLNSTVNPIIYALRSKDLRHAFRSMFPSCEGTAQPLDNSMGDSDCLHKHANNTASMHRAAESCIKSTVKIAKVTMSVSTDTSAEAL
T1 sequence (P47936 whole entry): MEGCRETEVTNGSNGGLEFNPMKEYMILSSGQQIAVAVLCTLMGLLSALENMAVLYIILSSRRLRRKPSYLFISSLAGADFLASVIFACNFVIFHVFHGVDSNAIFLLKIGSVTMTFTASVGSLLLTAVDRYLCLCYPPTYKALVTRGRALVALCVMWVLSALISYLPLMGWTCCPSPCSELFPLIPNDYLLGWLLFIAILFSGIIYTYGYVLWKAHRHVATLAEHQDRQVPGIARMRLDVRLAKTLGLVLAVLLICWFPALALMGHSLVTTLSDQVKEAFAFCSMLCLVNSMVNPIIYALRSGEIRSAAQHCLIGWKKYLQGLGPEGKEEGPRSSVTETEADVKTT

On to `NC(=O)c1nn(-c2ccc(S(N)(=O)=O)cc2)c2c1CCc1sccc1-2` [Compound (XB), 1-(4′-sulphonamidophenyl)-4,5-dihydro-1H-thieno[2,3-g]indazol-3-carboxamide], for which the Ki on CB2 receptors (setting [1]) and at CB1 receptors (setting [2]) was greater than 5 µM in each case.

Regarding `CCOC(=O)c1nn(-c2ccc(S(N)(=O)=O)cc2)c2c1CCc1sccc1-2` [Compound (XA), 1-(4′-sulphonamidophenyl)-4,5-dihydro-1H-thieno[2,3-g]indazol-3-ethyl carboxylate], the Ki on CB2 receptors (setting [1]) and on CB1 receptors (setting [2]) was greater than 5 µM each time.

As for `Cc1ccc(Cn2nc(C(=O)NCC3CCC4CC3C4(C)C)c3c2-c2sc(C)cc2C3)cc1` (stereo not shown) [Example 3.1, N-myrtanyl-6-methyl-1-(4′-methylbenzyl)-1,4-dihydrothieno[3′,2′:4,5]cyclopenta[1,2-c]pyrazol-3-carboxamide], the figures for the inhibition constant Ki on CB2 receptors and on CB1 receptors were 0.0483 ± 0.0026 µM and 0.0836 ± 0.0146 µM, respectively. In the assay on mice (40 mg/Kg), the “Reduction of body temperature versus the carrier” value is recorded as “significantly reduce the body temperature”. The “Body Temperature” value worked out at 37.9 °C in the assay with mice (0 minutes from administration); 36.1 °C with mice (15 minutes from administration); 34.8 °C in the assay on mice (30 minutes from administration); 35.0 °C in the assay on mice (60 minutes from administration); 36.7 °C in the assay with mice (90 minutes from administration); 37.2 °C in the assay with mice (120 minutes from administration).
